The values that follow are results of earlier work, collected in patent publication US11737967B2, “Increasing the stability of agents for treating keratin material” (Henkel AG & Co. KGaA, priority 2019, dated 2023).

SMILES strings stand for the structures.

The conditions of the series: 25° C.
Turning to `CCN(Cc1cccc(S(=O)(=O)[O-])c1)c1ccc(C(=C2C=CC(=[N+](CC)Cc3cccc(S(=O)(=O)[O-])c3)C=C2)c2ccccc2S(=O)(=O)[O-])cc1.[Na+].[Na+]` [Acid Blue 9], the solubility in water entry is “more than 20 % by weight”.
On to `O=S(=O)([O-])c1ccc(N=Nc2c(O)ccc3ccccc23)cc1.[Na+]` [Acid Orange 7, sodium salt of 4-[(2-hydroxy-1-naphthyl)azo]benzene sulphonate], for which the solubility in water entry was “more than 7 g/L”.
As for `Nc1cc(S(=O)(=O)[O-])cc2cc(S(=O)(=O)[O-])c(N=Nc3ccccc3)c(O)c12.[Na+].[Na+]` [Acid Red 33, diantrium salt of 5-amino-4-hydroxy-3-(phenylazo)-naphthalene-2,7-disulphonate], the solubility in water is 2500 µg/mL.
Turning to `O=C([O-])c1c(Cl)c(Cl)c(Cl)c(Cl)c1-c1c2c(Br)cc(=O)c(Br)c-2oc2c(Br)c(O)cc(Br)c12.O=C([O-])c1c(Cl)c(Cl)c(Cl)c(Cl)c1-c1c2c(Br)cc(=O)c(Br)c-2oc2c(Br)c(O)cc(Br)c12.[Na+].[Na+]` [Acid Red 92, disodium salt of 3,4,5,6-tetrachloro-2-(1,4,5,8-tetrabromo-6-hydroxy-3-oxoxanthen-9-yl)benzoic acid], the solubility in water result is “greater than 10 g/L”.
Take `O=C([O-])C1=NN(c2ccc(S(=O)(=O)[O-])cc2)C(=O)C1N=Nc1ccc(S(=O)(=O)[O-])cc1.[Na+].[Na+].[Na+]` (centres unmarked) [Acid Yellow 23, trisodium salt of 4,5-dihydro-5-oxo-1-(4-sulfophenyl)-4-((4-sulfophenyl)azo)-1H-pyrazole-3-carboxylic acid]: the “solubility in water” value is “highly soluble”.
